Values of other authors in patent US9878049B2, “High drug loading system to co-deliver anticancer drugs and nucleic acids for cancer therapy” (THE UNIVERSITY OF AKRON, priority 2013, dated 2018).

Details: general statement, no test described

Which water solubility does the source give for `CC[C@@]1(O)C(=O)OCc2c1cc1n(c2=O)Cc2cc3ccccc3nc2-1` [CPT, Camptothecin] here?
The water solubility was “low water solubility”.
